Drawing on ChEMBL document CHEMBL3877320, “Synthesis of new analogs of AKBA and evaluation of their anti-inflammatory activities” (Bioorg Med Chem, 2017), this text covers IC50 for 14 molecules.

In brackets after ≈: the same amount, converted by molar mass.

This assay in a line: Inhibition of potato 5-lipoxygenase using linoleic acid as substrate preincubated for 2 mins followed by substrate addition measured for 120 secs. More on the design: species or system Solanum tuberosum.
One may read the IC50 as the concentration that gives 50% inhibition. High values mean weaker potency in that assay, low ones greater potency in that assay. For `C[C@H]1[C@H](C)CC[C@]2(C)CC[C@]3(C)C(=CC(=O)[C@@H]4[C@@]5(C)Cc6cn[nH]c6[C@](C)(C(=O)N6CCCCC6)[C@@H]5CC[C@]43C)[C@H]12`, the IC50 was > 100 µg/mL. On to `COC(=O)[C@@]1(C)c2oncc2C[C@@]2(C)[C@H]1CC[C@]1(C)[C@@H]2C(=O)C=C2[C@@H]3[C@@H](C)[C@H](C)CC[C@]3(C)CC[C@]21C`, for which the IC50 is > 100 µg/mL.

Regarding `C[C@H]1[C@H](C)CC[C@]2(C)CC[C@]3(C)C(=CC(=O)[C@@H]4[C@@]5(C)CC(C=O)C(=O)[C@](C)(C(=O)N6CCOCC6)[C@@H]5CC[C@]43C)[C@H]12` (some centres undefined), the IC50 is > 100 µg/mL. In the case of `C[C@H]1[C@H](C)CC[C@]2(C)CC[C@]3(C)C(=CC(=O)[C@@H]4[C@@]5(C)CC(C=O)C(=O)[C@](C)(C(=O)Nc6ccccc6)[C@@H]5CC[C@]43C)[C@H]12` (some centres undefined) it was 19.53 µg/mL (≈ 34.2 µM).

For `C[C@H]1[C@H](C)CC[C@]2(C)CC[C@]3(C)C(=CC(=O)[C@@H]4[C@@]5(C)Cc6cnoc6[C@](C)(C(=O)N6CCN(C)CC6)[C@@H]5CC[C@]43C)[C@H]12`, the IC50 is > 100 µg/mL. In the case of `C[C@H]1[C@H](C)CC[C@]2(C)CC[C@]3(C)C(=CC(=O)[C@@H]4[C@@]5(C)Cc6cn[nH]c6[C@](C)(C(=O)N6CCN(C)CC6)[C@@H]5CC[C@]43C)[C@H]12` it was > 100 µg/mL; in that of `COC(=O)[C@@]1(C)C(=O)C(C#N)=C[C@]2(C)[C@H]3C(=O)C=C4[C@@H]5[C@@H](C)[C@H](C)CC[C@]5(C)CC[C@@]4(C)[C@]3(C)CC[C@@H]12`, > 100 µg/mL; in that of `C[C@H]1[C@H](C)CC[C@]2(C)CC[C@]3(C)C(=CC(=O)[C@@H]4[C@@]5(C)Cc6cn[nH]c6[C@](C)(C(=O)O)[C@@H]5CC[C@]43C)[C@H]12`, > 100 µg/mL.

With `C[C@H]1[C@H](C)CC[C@]2(C)CC[C@]3(C)C(=CC(=O)[C@@H]4[C@@]5(C)Cc6cn[nH]c6[C@](C)(C(=O)N6CCNCC6)[C@@H]5CC[C@]43C)[C@H]12`, the IC50 is > 100 µg/mL. In turn, `C[C@H]1[C@H](C)CC[C@]2(C)CC[C@]3(C)C(=CC(=O)[C@@H]4[C@@]5(C)Cc6cnoc6[C@](C)(C(=O)N6CCCCC6)[C@@H]5CC[C@]43C)[C@H]12` had an IC50 of 20.31 µg/mL (≈ 36.2 µM). In the case of `C[C@H]1[C@H](C)CC[C@]2(C)CC[C@]3(C)C(=CC(=O)[C@@H]4[C@@]5(C)CC(C=O)C(=O)[C@](C)(C(=O)N6CCCCC6)[C@@H]5CC[C@]43C)[C@H]12` (some centres undefined) it was > 100 µg/mL. Turning to `C[C@H]1[C@H](C)CC[C@]2(C)CC[C@]3(C)C(=CC(=O)[C@@H]4[C@@]5(C)CC(C=O)C(=O)[C@](C)(C(N)=O)[C@@H]5CC[C@]43C)[C@H]12` (some centres undefined), the IC50 is > 100 µg/mL. `CC(=O)O[C@@H]1CC[C@@]2(C)[C@@H](CC[C@]3(C)[C@@H]2C(=O)C=C2[C@@H]4[C@@H](C)[C@H](C)CC[C@]4(C)CC[C@]23C)[C@@]1(C)C(=O)O` [AKBA] yielded an IC50 of 94.6 µg/mL (≈ 185 µM). Turning to `C[C@H]1[C@H](C)CC[C@]2(C)CC[C@]3(C)C(=CC(=O)[C@@H]4[C@@]5(C)CC(C=O)C(=O)[C@@H](C)[C@@H]5CC[C@]43C)[C@H]12` (some centres undefined), the IC50 was 44.14 µg/mL (≈ 97.5 µM).
